Holding throughout (assay): spectrofluorometric titration of protein with chromophore
For test [1], the target named is T1, FAST (Fluorescence-Activating and absorption-Shifting Tag) (Halorhodospira halophila, UniProt P16113, C69G/D97P/F96I/M100R/Q99S/R52Y/T101G/T95M/Y94W/Y98T).
T1 construct: gene pyp; engineered full-length PYP variant (~14 kDa); E. coli BL21(DE3)
T1 sequence (P16113 1-125 R52Y/C69G/Y94W/T95M/F96I/D97P/Y98T/Q99S/M100R/T101G): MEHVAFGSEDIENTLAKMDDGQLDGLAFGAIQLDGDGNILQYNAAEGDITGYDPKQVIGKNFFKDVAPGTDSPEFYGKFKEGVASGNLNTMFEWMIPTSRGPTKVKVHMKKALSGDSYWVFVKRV
The format is binding. The text has this: (§1) spectrofluorometric titration of protein with chromophore on FAST (Fluorescence-Activating and absorption-Shifting Tag)

Test [2] concerns the target T2, FAST (Fluorescence-Activating and absorption-Shifting Tag) (Halorhodospira halophila, UniProt P16113, C69G/Y94W/T95M/F96I/D97P/Y98T/Q99S/M100R/T101G).
T2 construct: gene pyp; engineered full-length PYP variant (~14 kDa); E. coli BL21(DE3)
T2 sequence (P16113 1-125 C69G/Y94W/T95M/F96I/D97P/Y98T/Q99S/M100R/T101G): T1 sequence (P16113 1-125 R52Y/C69G/Y94W/T95M/F96I/D97P/Y98T/Q99S/M100R/T101G) with Y52R
The test is classed as binding. The note with it: 0.10 µM protein, 25 °C.
Text: as §1

Test [3] concerns the target T3, FAST (Fluorescence-Activating and absorption-Shifting Tag) (Halorhodospira halophila, UniProt P16113, R52L/C69G/Y94W/T95M/F96I/D97P/Y98T/Q99S/M100R/T101G).
T3 construct: gene pyp; engineered full-length PYP variant (~14 kDa); E. coli BL21(DE3)
T3 sequence (P16113 1-125 R52L/C69G/Y94W/T95M/F96I/D97P/Y98T/Q99S/M100R/T101G): T1 sequence (P16113 1-125 R52Y/C69G/Y94W/T95M/F96I/D97P/Y98T/Q99S/M100R/T101G) with Y52L
The test is classed as binding. As to conditions: 0.10 µM protein, 25 °C.
Text: as §1

The target in a further test is T4, pFAST.
T4 construct: gene pyp; multipoint directed-evolution variant of FAST (itself engineered PYP); E. coli BL21(DE3)
The format is binding, Halorhodospira halophila. As to conditions: 0.10 µM protein, 25 °C. The source says: spectrofluorometric titration of protein with chromophore on pFAST

For test [4], the target named is T5, FAST (Fluorescence-Activating and absorption-Shifting Tag) (Halorhodospira halophila, UniProt P16113, R52Y/C69G/Y94W/T95M/F96I/D97P/Y98T/Q99S/M100R/T101G).
T5 construct: gene pyp; engineered full-length PYP variant (~14 kDa); E. coli BL21(DE3)
T5 sequence (P16113 1-125 R52Y/C69G/Y94W/T95M/F96I/D97P/Y98T/Q99S/M100R/T101G): T1 sequence (P16113 1-125 R52Y/C69G/Y94W/T95M/F96I/D97P/Y98T/Q99S/M100R/T101G)
The format is binding. The note with it: 0.10 µM protein, 25 °C.
Text: as §1

Test [5] addresses T6, FAST (Fluorescence-Activating and absorption-Shifting Tag) (Halorhodospira halophila, UniProt P16113, C69G/Y94W/T95M/F96I/D97P/Y98T/Q99R/M100R/T101G).
T6 construct: gene pyp; engineered full-length PYP variant (~14 kDa); E. coli BL21(DE3)
T6 sequence (P16113 1-125 C69G/Y94W/T95M/F96I/D97P/Y98T/Q99R/M100R/T101G): T1 sequence (P16113 1-125 R52Y/C69G/Y94W/T95M/F96I/D97P/Y98T/Q99S/M100R/T101G) with Y52R, S99R
The test is classed as binding. The note with it: 0.10 µM protein, 25 °C.

Test [6] addresses T7, FAST (Fluorescence-Activating and absorption-Shifting Tag) (Halorhodospira halophila, UniProt P16113, C69G/Y94W/T95M/F96I/D97P/Y98T/Q99K/M100R/T101G).
T7 construct: gene pyp; engineered full-length PYP variant (~14 kDa); E. coli BL21(DE3)
T7 sequence (P16113 1-125 C69G/Y94W/T95M/F96I/D97P/Y98T/Q99K/M100R/T101G): T1 sequence (P16113 1-125 R52Y/C69G/Y94W/T95M/F96I/D97P/Y98T/Q99S/M100R/T101G) with Y52R, S99K
The test is classed as binding. As to conditions: 0.10 µM protein, 25 °C.

In test [7] the target is T8, FAST (Fluorescence-Activating and absorption-Shifting Tag) (Halorhodospira halophila, UniProt P16113, C69G/P73S/Y94W/T95M/F96I/D97P/Y98T/Q99S/M100R/T101G).
T8 construct: gene pyp; engineered full-length PYP variant (~14 kDa); E. coli BL21(DE3)
T8 sequence (P16113 1-125 C69G/P73S/Y94W/T95M/F96I/D97P/Y98T/Q99S/M100R/T101G): T1 sequence (P16113 1-125 R52Y/C69G/Y94W/T95M/F96I/D97P/Y98T/Q99S/M100R/T101G) with Y52R, P73S
The test is classed as binding. As to conditions: 0.10 µM protein, 25 °C. The text has this:
(§2) spectrofluorometric titration of protein with chromophore on FAST (Fluorescence-Activating and absorption-Shifting Tag) | all the S99 mutants, P73S, P68K, D65K

Test [8] addresses T9, FAST (Fluorescence-Activating and absorption-Shifting Tag) (Halorhodospira halophila, UniProt P16113, D65K/C69G/Y94W/T95M/F96I/D97P/Y98T/Q99S/M100R/T101G).
T9 construct: gene pyp; engineered full-length PYP variant (~14 kDa); E. coli BL21(DE3)
T9 sequence (P16113 1-125 D65K/C69G/Y94W/T95M/F96I/D97P/Y98T/Q99S/M100R/T101G): T1 sequence (P16113 1-125 R52Y/C69G/Y94W/T95M/F96I/D97P/Y98T/Q99S/M100R/T101G) with Y52R, D65K
The test is classed as binding. The note with it: 0.10 µM protein, 25 °C.
Text: as §2

Test [9] has as its target T10, FAST (Fluorescence-Activating and absorption-Shifting Tag) (Halorhodospira halophila, UniProt P16113, P68K/C69G/Y94W/T95M/F96I/D97P/Y98T/Q99S/M100R/T101G).
T10 construct: gene pyp; engineered full-length PYP variant (~14 kDa); E. coli BL21(DE3)
T10 sequence (P16113 1-125 P68K/C69G/Y94W/T95M/F96I/D97P/Y98T/Q99S/M100R/T101G): T1 sequence (P16113 1-125 R52Y/C69G/Y94W/T95M/F96I/D97P/Y98T/Q99S/M100R/T101G) with Y52R, P68K
The format is binding. The note with it: 0.10 µM protein, 25 °C.
Text: as §2

For test [10], the target named is T11, FAST (Fluorescence-Activating and absorption-Shifting Tag) (Halorhodospira halophila, UniProt P16113, R52E/C69G/Y94W/T95M/F96I/D97P/Y98T/Q99S/M100R/T101G).
T11 construct: gene pyp; engineered full-length PYP variant (~14 kDa); E. coli BL21(DE3)
T11 sequence (P16113 1-125 R52E/C69G/Y94W/T95M/F96I/D97P/Y98T/Q99S/M100R/T101G): T1 sequence (P16113 1-125 R52Y/C69G/Y94W/T95M/F96I/D97P/Y98T/Q99S/M100R/T101G) with Y52E
The format is binding. As to conditions: 0.10 µM protein, 25 °C. The source says: (§3) spectrofluorometric titration of protein with chromophore on FAST (Fluorescence-Activating and absorption-Shifting Tag) | studied their properties in complex with N871b fluorogen

The target in test [11] is T12, FAST (Fluorescence-Activating and absorption-Shifting Tag) (Halorhodospira halophila, UniProt P16113, R52E/D65R/C69G/Y94W/T95M/F96I/D97P/Y98T/Q99S/M100R/T101G).
T12 construct: gene pyp; engineered full-length PYP variant (~14 kDa); E. coli BL21(DE3)
T12 sequence (P16113 1-125 R52E/D65R/C69G/Y94W/T95M/F96I/D97P/Y98T/Q99S/M100R/T101G): T1 sequence (P16113 1-125 R52Y/C69G/Y94W/T95M/F96I/D97P/Y98T/Q99S/M100R/T101G) with Y52E, D65R
The format is binding. The note with it: 0.10 µM protein, 25 °C.
Text: as §3

The target of test [12] is T13, FAST (Fluorescence-Activating and absorption-Shifting Tag) (Halorhodospira halophila, UniProt P16113, C69G/Y94W/T95M/F96I/D97P/Y98T/Q99E/M100R/T101G).
T13 construct: gene pyp; engineered full-length PYP variant (~14 kDa); E. coli BL21(DE3)
T13 sequence (P16113 1-125 C69G/Y94W/T95M/F96I/D97P/Y98T/Q99E/M100R/T101G): T1 sequence (P16113 1-125 R52Y/C69G/Y94W/T95M/F96I/D97P/Y98T/Q99S/M100R/T101G) with Y52R, S99E
The format is binding. As to conditions: 0.10 µM protein, 25 °C.

Positions count from the first letter of the chain named.

Consider 4 molecules from PMC9287381, “Structure-based rational design of an enhanced fluorogen-activating protein for fluorogens based on GFP chromophore” (Communications Biology, 2022).

`COc1cc(O)ccc1/C=C1N=C(/C=C/c2ccccn2)N(C)C\1=O` [MCL.1f]: the Kd in [1] was found to be 0.31 ± 0.05 µM; in test [2], 0.27 ± 0.04 µM; in test [3], 0.39 ± 0.1 µM; on pFAST, 0.029 ± 0.005 µM.
Consider `COc1cc(O)ccc1/C=C1\N=C2C=C(/C=C/c3ccncc3)C=CN2C1=O` [MCL.3a], for which the Kd was 0.08 ± 0.01 µM in [2], 0.06 ± 0.01 µM in [3], 0.11 ± 0.02 µM in test [4] and 0.025 ± 0.002 µM on pFAST.
As for `COc1cc(O)ccc1/C=C1N=C(/C=C/c2cccs2)N(C)C\1=O` [MCL.1b], the Kd in [1] came out at 0.27 ± 0.06 µM; in [2] it was 0.2 ± 0.04 µM; in test [3], 0.44 ± 0.2 µM; on pFAST, 0.023 ± 0.003 µM.
For `COc1cc(O)ccc1/C=C1N=C(/C=C/c2ccncc2)N(C)C\1=O` [N871b], the Kd was determined as 240 ± 10 nM in test [5]; 0.24 ± 0.02 µM in test [1]; 0.33 ± 0.01 µM in [2]; 0.27 ± 0.01 µM in test [3]; 270 ± 10 nM in test [6]; 0.04 ± 0.002 µM on pFAST. Also, the Kd in [7] came to 170 ± 10 nM; in [8] it was 250 ± 10 nM; in test [9], 220 ± 10 nM; in [10] it was 1300 ± 70 nM; in test [11], 1360 ± 220 nM; in test [12], 210 ± 10 nM.

For orientation: Kd means the equilibrium constant for the complex coming apart.
